Assays:
[1] = tested on: krypton laser-induced choroidal neovascularization; experiment: Effects of subconjunctivally administered betamethasone-PEG conjugate on krypton laser-induced choroidal neovascularization in rats; format: in vivo; conditions: single subconjunctival injection 50 μl (BM-PEG 40 mg/ml, BP 2.8 mg/ml), 14th day after photocoagulation, vehicle 71.9%
Description: 1) A one ml/kg mixed solution containing an aqueous ketamine hydrochloride solution (50 mg/ml) and an aqueous xylazine hydrochloride solution (50 mg/ml) in a ratio of 7:1 was administered intramuscularly to rats to anesthetize them systemically.
2) A 0.5% tropicamide-0.5% phenylephrine hydrochloride solution was instilled into the eyes to cause mydriasis, and then photocoagulation was performed with a krypton laser photocoagulation apparatus (red) under coagulation conditions of spot size of 100 μm, output of 100 mW and coagulation time of 0.1 sec.
3) Cover glass for observing tissues was used as a contact lens, the photocoagulation was carried out in a posterior pole portion of ocular fundus at eight spots per eye sparsely avoiding thick retinal vessels. The photocoagulation was carried out focusing on the retinal posterior portion in order to cut a Bruch's membrane. After the photocoagulation, the ocular fundus was photographed. […]
6) In the fluorescein fundus angiography, a photocoagulation site where fluorescence diapedesis was not observed was judged as negative, and a photocoagulation site where apparent fluorescence diapedesis was observed was judged as positive. When there are two photocoagulation sites where a little fluorescence diapedesis was observed, they were judged as positive. Each neovascularization exhibition rate was calculated according to the following equation. […]

[2] = Intraocular pharmacokinetic tests by fluorophotometry in rabbits after injection into the vitreous body; format: in vivo, white rabbits; conditions: rabbit, intravitreous injection
Description: Intraocular pharmacokinetic tests by fluorophotometry in rabbits It is difficult in terms of measurement techniques to actually trace transfer of slight amounts of tissues using the drug-PEG conjugate prepared above. Accordingly, fluorescein, which has fluorescence and can be measured with high sensitivity, was used as a model drug, a fluorescein-PEG conjugate (hereinafter referred to as “FL-PEG”) was synthesized, and intraocular pharmacokinetics tests were performed. Fluorescein sodium (hereinafter referred to as “FL”) was used as a comparative substance.
A 2.6% sterilized glycerin solution (10 ml) was added to FL-PEG (18 mg), and this liquid was stirred to dissolve FL-PEG to prepare an injection. A 10 μg/ml injection containing FL was prepared in the similar manner.
1) A mixed solution containing an aqueous ketamine hydrochloride solution (50 mg/ml) and an aqueous xylazine hydrochloride (50 mg/ml) in a ratio of 7:3 was administered intramuscularly to white rabbits to anesthetize.
2) A tropicamide (0.5%)/phenylephrine hydrochloride (0.5%) ophthalmic solution was instilled into eyes to cause mydriasis in the eyes.
3) The eyes were anesthetized with an oxybuprocaine hydrochloride (0.5%) ophthalmic solution.
4) The above-mentioned FL-PEG or FL liquid preparation was injected into the center of a vitreous body of one eye from an ocular pars plana in an amount of […] respectively with a syringe equipped with a 30 G needle.
5) Intraocular fluorescence intensity was measured with a fluorophotometry apparatus with the laps of time immediately after the administration to the vitreous body and at 1, 2, 4, 7, 15, 18, 23, 28, 35, 42, 49 and 56 days. A calibration curves were prepared, changes in concentration in the vitreous body and a retina were determined. Next, respective half-lives were calculated from the changes in concentration by a moment method. The above-mentioned operation 2) was carried out before the intraocular fluorescence intensity was measured.
The numerical values in the table are the average of three samples respectively. The half-life of FL-PEG in the vitreous body was calculated using measured values on forth to 28th day. […] The half-life of FL in the vitreous body was calculated using measured values immediately after the administration and on first day after the administration.

| Compound | Neovascularization exhibition rate (%) [1] [%] | Half-life in vitreous body ([2]; fluorophotometry, moment method, average of three samples) | Detection in the retina (changes in concentration, FIG. 2) ([2]; followed for 56 days) | Detection in the vitreous body (changes in concentration, FIG. 1) ([2]; followed for 56 days) | half-life ([2]; white, vitreous body, other: injection into the vitreous body (intravitreal), 1 µg/eye, fluorophotometry, moment method, average of three samples) [min] |
| --- | --- | --- | --- | --- | --- |
| C[C@H]1C[C@H]2[C@@H]3CCC4=CC(=O)C=C[C@]4(C)[C@@]3(F)[C@@H](O)C[C@]2(C)[C@@]1(O)C(=O)COP(=O)(O)O [BP, Betamethasone phosphate] | 50.0 | – | – | – | – |
| O=C1OC2(c3ccc(O)cc3Oc3cc(O)ccc32)c2ccccc21 [FL, Fluorescein sodium] | – | less than four | detected only on first day after the administration | not detected on second day after the administration or later | < 240 |

— US20040254197A1, “Injections for eye tissues containing drug bonded to polyethlene glycol” (SANTEN PHARMACEUTICAL CO., LTD., priority 2001, published 2004)
